This is an account of results in ChEMBL document CHEMBL1201862, “PubChem BioAssay data set” (2004).

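Results reflect a 48-hour exposure of cells in 96-well plates to compound at five concentrations. The concentration for 50% growth inhibition is given as GI50.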 Active and inactive are the calls of the source. Rule as the data show it: active = GI50 up to about 1.1 µM and inactive = higher.

Among the test systems are LOX IMVI; CAKI-1; K562; SF-268; Hs-578T; COLO 205; OVCAR-4; SK-MEL-5; SW-620; U-251; HOP-92; NCI-H23; MCF7; RXF 393; SN12C; MDA-N; CCRF-CEM; SNB-19; UACC-257.
Holding throughout (assay): growth of human tumour cells (NCI), 48 h

Regarding `O=C1Nc2ccccc2C(=O)/C1=C/NC(=S)NC1CCCCC1`, the GI50 in the assay with LOX IMVI, in the assay with CAKI-1, in the assay on K562, in the assay with SF-268, with Hs-578T and in the assay on COLO 205 was > 100 µM (inactive) each time. The GI50 in the assay with OVCAR-4, in the assay on SK-MEL-5, in the assay with SW-620, in the assay with U-251, with HOP-92 and in the assay on NCI-H23 was > 100 µM (inactive) throughout. For the same molecule, the GI50 in the assay on MCF7, in the assay on RXF 393, with SN12C, in the assay with MDA-N, in the assay with CCRF-CEM and with SNB-19 was > 100 µM (inactive) throughout. For the same molecule, in the assay with UACC-257, the GI50 was > 100 µM (inactive).

For the molecule `CC1CNC(c2cccc(OCc3ccc(COc4cccc(C5=NC(C)CN5)c4)cc3)c2)=N1` (stereo unspecified), the GI50 was 22 µM (inactive) with LOX IMVI; > 100 µM (inactive) with CAKI-1; 5.7 µM (inactive) with K562; 35.6 µM (inactive) with SF-268; 20.2 µM (inactive) in the assay on Hs-578T; 17 µM (inactive) in the assay on COLO 205. The GI50 was 49.7 µM (inactive) in the assay on OVCAR-4; 22.9 µM (inactive) in the assay with SK-MEL-5; 42.6 µM (inactive) in the assay with SW-620; 35.6 µM (inactive) in the assay with U-251; > 100 µM (inactive) with HOP-92; 43.7 µM (inactive) with NCI-H23. Besides, the GI50 with MCF7 was 28.2 µM (inactive); in the assay on RXF 393, 40.7 µM (inactive); with SN12C, 19.5 µM (inactive); with MDA-N, 38.6 µM (inactive); in the assay on CCRF-CEM, 18.9 µM (inactive); in the assay on SNB-19 it was 68.1 µM (inactive). In addition, the GI50 in the assay on UACC-257 is 12.6 µM (inactive).

With `CCCSc1ccc2[nH]c(N3C(=O)/C(=C/c4ccc(SC)cc4)N=C3c3ccccc3)cc2c1`, the GI50 is 35.7 µM (inactive) in the assay with LOX IMVI; 38.8 µM (inactive) in the assay with CAKI-1; 0.355 µM (active) in the assay with K562; 29.8 µM (inactive) in the assay on SF-268; 28.1 µM (inactive) with Hs-578T; 14.2 µM (inactive) with COLO 205. The GI50 is 19.6 µM (inactive) in the assay with OVCAR-4; 10.7 µM (inactive) in the assay with SK-MEL-5; 18.5 µM (inactive) with SW-620; 27.1 µM (inactive) with U-251; > 50 µM (inactive) with HOP-92; > 34.4 µM (inactive) with NCI-H23. In addition, the GI50 was 14.1 µM (inactive) in the assay with MCF7; 19.9 µM (inactive) in the assay with RXF 393; > 40.5 µM (inactive) in the assay with SN12C; 6.56 µM (inactive) in the assay on MDA-N; 13.5 µM (inactive) with CCRF-CEM; 29.1 µM (inactive) in the assay with SNB-19. Moreover, the GI50 in the assay with UACC-257 was 17.3 µM (inactive).

For `O=S(=O)(/N=c1\[nH]c(-c2cc(O)c(O)c(O)c2)cs1)c1ccc(Cl)cc1Cl`, the GI50 was 12.8 µM (inactive) with LOX IMVI; 17.3 µM (inactive) with CAKI-1; 18.6 µM (inactive) with K562; 20.5 µM (inactive) with SF-268; 20.1 µM (inactive) with Hs-578T; 22 µM (inactive) with COLO 205. The GI50 in the assay with OVCAR-4 was 22.1 µM (inactive); with SK-MEL-5 it was 17.1 µM (inactive); in the assay with SW-620, 18.5 µM (inactive); in the assay with U-251, 19 µM (inactive); in the assay on HOP-92 it was 41.2 µM (inactive); in the assay with NCI-H23 it was 26.5 µM (inactive). Further, the GI50 was 17.6 µM (inactive) in the assay on MCF7; 25.5 µM (inactive) in the assay on RXF 393; 18.7 µM (inactive) in the assay with SN12C; 25.1 µM (inactive) in the assay with MDA-N; 19.9 µM (inactive) with CCRF-CEM; 31 µM (inactive) in the assay on SNB-19. In the assay with UACC-257, the GI50 is 16 µM (inactive).
